Test system: lung fibroblasts
Assay: IGF-1 expression in lung fibroblasts
Type: cell-based
Conditions: not shown
From the text: IGF-1 was implicated as a fibroblast mitogen in BALF from patients with sarcoidosis (Allen et al., Am J Respir Cell Mol Biol 19:250-258 (1998)) and systemic sclerosis (Harrison et al., Clin Sci (Lond) 86:141-148 (1994)). […] In the experiments described herein, IGF-1 mediated cell survival and migration, but not proliferation of normal lung fibroblasts through IGF-1R. The prior studies used either the fetal fibroblast cell line IMR-90 or human fetal embryonic fibroblasts (HFL-1) to examine the proliferative response (Allen et al., Am J Respir Cell Mol Biol 19:250-258 (1998); Harrison et al., Clin Sci (Lond) 86:141-148 (1994)). In contrast, the studies described herein used early passage primary adult lung fibroblasts, which may account for differences in results. In addition, the mitogenic response to IGF in the earlier studies was determined by immunodepletion of IGF from BALF (Allen et al., Am J Respir Cell Mol Biol 19:250-258 (1998); Harrison et al., Clin Sci (Lond) 86:141-148 (1994)). Without wishing to be bound by theory, it is thought that activation of fibroblasts by other growth factors or cytokines such as TGFβ1 in BALF may be necessary for the pro-proliferative effect of IGF (Scarpa et al., Peptides 26:2201-2210 (2005); Danielpour and Song, Cytokine & growth factor reviews 17:59-74 (2006)).

In the case of “TGFβ1: growth factor, mediator of fibrosis”, the “IGF-1 expression in lung fibroblasts” value is reported as “significantly upregulated IGF-1 expression”.

Reference: patent US8178091B2, “Compositions and methods for the treatment of respiratory disorders” (University of Washington, priority 2007, dated 2012)
